Results on 42 compounds are retold here after ChEMBL document CHEMBL3286312, “Synthesis and structure-activity relationships of guaiane-type sesquiterpene lactone derivatives with respect to inhibiting NO production in lipopolysaccharide-induced RAW 264.7 macrophages” (Eur J Med Chem, 2014).

The subject of data set [1] is RAW264.7. In words: Antiinflammatory activity against mouse RAW264.7 cells assessed as inhibition of LPS-induced NO production at 25 uM after 18 hrs by Griess method relative to control. It is filed as functional. Particulars: RAW264.7, 18 h. In general terms: Nitrite, measured by Griess reagent, commonly stands in for NO production.
The nature of data set [2]: Cytotoxicity against mouse RAW264.7 cells assessed as cell survival rate up to 25 uM after 18 hrs by MTT assay relative to control. It is filed as cell-based. The note with it: read-out: Survival. On the technique in general: Formazan colour is commonly taken as a measure of viable cells.
The subject of data set [3] is RAW264.7. In words: Antiinflammatory activity against mouse RAW264.7 cells assessed as inhibition of LPS-induced NO production at after 18 hrs by Griess method relative to control. It counts as functional, cell-based. The note with it: RAW264.7, 18 h.
In data set [4] the test system is RAW264.7. Briefly: Cytotoxicity against mouse RAW264.7 cells assessed as reduction in cell survival rate after 18 hrs by MTT assay relative to control. It is filed as cell-based. The note with it: RAW264.7, 18 h.

One may read the inhibition as how much of the control response was suppressed. Consider `CC1=C2C(C[C@@H]1OC(=O)/C=C/c1ccc([N+](=O)[O-])cc1)[C@](C)(O)CC[C@H]1[C@H](C)C(=O)O[C@H]21` (stereo partly specified), for which the inhibition at 25 µM in the data set with RAW264.7 [1] was 45%. Besides, the viability at 18 h in data set [2] came out at 92.5%.
In the same order, the values of `CC(=O)O[C@]1(C)CC[C@H]2[C@H](C)C(=O)O[C@@H]2C2=C(C)C(=O)CC21` (stereo partly specified) are 6.9% and 100%.
In the same order, the values of `CC(=O)O[C@]1(C)CC[C@H]2[C@H](C)C(=O)O[C@@H]2C2=C(C)[C@@H](O)CC21` (stereo partly specified) are 0% and 100%.
In the same order, the values of `CC1=C2C(CC1=O)[C@](C)(O)CC[C@H]1[C@H](C)C(=O)O[C@H]21` (stereo partly specified) are 0% and 100%.
As for `CC1=C2C(C[C@@H]1O)[C@](C)(O)CC[C@H]1[C@H](C)C(=O)O[C@H]21` (stereo partly specified), in the data set on RAW264.7 [1], the inhibition at 25 µM was 0%. Besides, the viability at 18 h in data set [2] amounted to 100%.
On to `CC1=C2C(C[C@@H]1OC(=O)c1ccc(C)cc1)[C@](C)(O)CC[C@H]1[C@H](C)C(=O)O[C@H]21` (stereo partly specified), for which the inhibition at 25 µM in the data set on RAW264.7 [1] was found to be 21.2%. The viability at 18 h in data set [2] is 100%.
In the same order, the values of `CCc1ccc(C(=O)O[C@H]2CC3C(=C2C)[C@H]2OC(=O)[C@@H](C)[C@@H]2CC[C@@]3(C)O)cc1` (stereo partly specified) are 26.3% and 85.2%.
Taken in the same sequence, the figures for `CCCc1ccc(C(=O)O[C@H]2CC3C(=C2C)[C@H]2OC(=O)[C@@H](C)[C@@H]2CC[C@@]3(C)O)cc1` (stereo partly specified) were 30.6% and 73.4%.
On to `CCCCc1ccc(C(=O)O[C@H]2CC3C(=C2C)[C@H]2OC(=O)[C@@H](C)[C@@H]2CC[C@@]3(C)O)cc1` (stereo partly specified), for which the inhibition at 25 µM in the data set on RAW264.7 [1] turned out to be 33.2%. Also, in data set [2], the viability at 18 h was determined as 72.6%.
Taken in the same sequence, the figures for `CCCCCc1ccc(C(=O)O[C@H]2CC3C(=C2C)[C@H]2OC(=O)[C@@H](C)[C@@H]2CC[C@@]3(C)O)cc1` (stereo partly specified) were 29.8% and 79.3%.
In the same order, the values of `CC1=C2C(C[C@@H]1OC(=O)c1ccc(C(C)C)cc1)[C@](C)(O)CC[C@H]1[C@H](C)C(=O)O[C@H]21` (stereo partly specified) are 53.3% and 74.7%.
Broadly, the IC50 is the concentration needed to halve the response being measured. In the case of `CC1=C2C(C[C@@H]1OC(=O)c1ccc(C(C)(C)C)cc1)[C@](C)(O)CC[C@H]1[C@H](C)C(=O)O[C@H]21` (stereo partly specified), in the data set with RAW264.7 [1], the inhibition at 25 µM stood at 76.3%. The viability at 18 h in data set [2] came out at 52.1%. Also, the IC50 with RAW264.7 [3] stood at 14.8 µM; with RAW264.7 [4] it was 29.1 µM.
As for `COc1ccc(C(=O)O[C@H]2CC3C(=C2C)[C@H]2OC(=O)[C@@H](C)[C@@H]2CC[C@@]3(C)O)cc1` (stereo partly specified), in the data set on RAW264.7 [1], the inhibition at 25 µM was found to be 6.6%. In addition, the viability at 18 h in data set [2] amounted to 98%.
Regarding `CC1=C2C(C[C@@H]1OC(=O)c1ccc(OC(F)(F)F)cc1)[C@](C)(O)CC[C@H]1[C@H](C)C(=O)O[C@H]21` (stereo partly specified), the inhibition at 25 µM in the data set with RAW264.7 [1] was 30.6%. The viability at 18 h in data set [2] amounted to 97.5%.
In the same order, the values of `CC1=C2C(C[C@@H]1OC(=O)c1ccc(C(F)(F)F)cc1)[C@](C)(O)CC[C@H]1[C@H](C)C(=O)O[C@H]21` (stereo partly specified) are 20.4% and 100%.
`CC1=C2C(C[C@@H]1OC(=O)c1ccc([N+](=O)[O-])cc1)[C@](C)(O)CC[C@H]1[C@H](C)C(=O)O[C@H]21` (stereo partly specified): the inhibition at 25 µM in the data set with RAW264.7 [1] was 1.8%. Further, the viability at 18 h in data set [2] was determined as 100%.
Taken in the same sequence, the figures for `CC1=C2C(C[C@@H]1OC(=O)c1ccc(C#N)cc1)[C@](C)(O)CC[C@H]1[C@H](C)C(=O)O[C@H]21` (stereo partly specified) were 6.6% and 100%.
In the case of `CC1=C2C(C[C@@H]1OC(=O)c1ccc(F)cc1)[C@](C)(O)CC[C@H]1[C@H](C)C(=O)O[C@H]21` (stereo partly specified), the inhibition at 25 µM with RAW264.7 [1] was found to be 19.4%. In data set [2], the viability at 18 h worked out at 100%.
Regarding `CC1=C2C(C[C@@H]1OC(=O)c1ccc(Cl)cc1)[C@](C)(O)CC[C@H]1[C@H](C)C(=O)O[C@H]21` (stereo partly specified), in the data set on RAW264.7 [1], the inhibition at 25 µM turned out to be 19.6%. Besides, the viability at 18 h in data set [2] was found to be 100%.
Taken in the same sequence, the figures for `CC1=C2C(C[C@@H]1OC(=O)c1ccc(Br)cc1)[C@](C)(O)CC[C@H]1[C@H](C)C(=O)O[C@H]21` (stereo partly specified) were 28.1% and 98.1%.
Taken in the same sequence, the figures for `CC1=C2C(C[C@@H]1OC(=O)c1ccc(I)cc1)[C@](C)(O)CC[C@H]1[C@H](C)C(=O)O[C@H]21` (stereo partly specified) were 46.5% and 93%.
`CC1=C2C(C[C@@H]1OC(=O)/C=C/c1ccc(C)cc1)[C@](C)(O)CC[C@H]1[C@H](C)C(=O)O[C@H]21` (stereo partly specified): in the data set with RAW264.7 [1], the inhibition at 25 µM came out at 58.8%. Moreover, in data set [2], the viability at 18 h was found to be 100%. The values for the concentration for half-maximal inhibition (IC50) in the data set with RAW264.7 [3] and in the data set on RAW264.7 [4] were 29 µM and 76.5 µM, respectively.
As for `CSc1ccc(/C=C/C(=O)O[C@H]2CC3C(=C2C)[C@H]2OC(=O)[C@@H](C)[C@@H]2CC[C@@]3(C)O)cc1` (stereo partly specified), the inhibition at 25 µM in the data set on RAW264.7 [1] was determined as 67.4%. In data set [2], the viability at 18 h came to 100%. Also, the IC50 with RAW264.7 [3] is 27.2 µM; in the data set on RAW264.7 [4] it was more than 100 µM.
Consider `COc1ccc(/C=C/C(=O)O[C@H]2CC3C(=C2C)[C@H]2OC(=O)[C@@H](C)[C@@H]2CC[C@@]3(C)O)cc1` (stereo partly specified), for which the inhibition at 25 µM in the data set with RAW264.7 [1] amounted to 19.3%. Further, the viability at 18 h in data set [2] was found to be 100%.
In the same order, the values of `CCOc1ccc(/C=C/C(=O)O[C@H]2CC3C(=C2C)[C@H]2OC(=O)[C@@H](C)[C@@H]2CC[C@@]3(C)O)cc1` (stereo partly specified) are 26.9% and 35.6%.
Taken in the same sequence, the figures for `CCCOc1ccc(/C=C/C(=O)O[C@H]2CC3C(=C2C)[C@H]2OC(=O)[C@@H](C)[C@@H]2CC[C@@]3(C)O)cc1` (stereo partly specified) were 19.3% and 43.1%.
In the same order, the values of `CC1=C2C(C[C@@H]1OC(=O)/C=C/c1ccc(N(C)C)cc1)[C@](C)(O)CC[C@H]1[C@H](C)C(=O)O[C@H]21` (stereo partly specified) are 44.5% and 100%.
With `CC1=C2C(C[C@@H]1OC(=O)/C=C/c1ccc(F)cc1)[C@](C)(O)CC[C@H]1[C@H](C)C(=O)O[C@H]21` (stereo partly specified), the inhibition at 25 µM with RAW264.7 [1] turned out to be 31.6%. For the same compound, in data set [2], the viability at 18 h stood at 100%.
With `CC1=C2C(C[C@@H]1OC(=O)/C=C/c1ccc(Cl)cc1)[C@](C)(O)CC[C@H]1[C@H](C)C(=O)O[C@H]21` (stereo partly specified), in the data set with RAW264.7 [1], the inhibition at 25 µM came to 82%. Further, in data set [2], the viability at 18 h turned out to be 100%. Moreover, the values for the IC50 in the data set on RAW264.7 [3] and in the data set on RAW264.7 [4] were 22.3 µM and 59.2 µM, respectively.
In the same order, the values of `CC1=C2C(C[C@@H]1OC(=O)/C=C/c1ccc(Br)cc1)[C@](C)(O)CC[C@H]1[C@H](C)C(=O)O[C@H]21` (stereo partly specified) are 85.2%, 97.8%, 18.3 µM and 60.2 µM.
On to `CC1=C2C(C[C@@H]1OC(=O)/C=C/c1ccc(C#N)cc1)[C@](C)(O)CC[C@H]1[C@H](C)C(=O)O[C@H]21` (stereo partly specified), for which the inhibition at 25 µM with RAW264.7 [1] worked out at 31.4%. The viability at 18 h in data set [2] came out at 100%.
As for `CC1=C2C(C[C@@H]1OC(=O)/C=C/c1ccc(C(F)(F)F)cc1)[C@](C)(O)CC[C@H]1[C@H](C)C(=O)O[C@H]21` (stereo partly specified), the inhibition at 25 µM with RAW264.7 [1] is 75.9%. The viability at 18 h in data set [2] is 100%. The 50% inhibitory concentration (IC50) was 17.4 µM in the data set on RAW264.7 [3] and 54.9 µM in the data set with RAW264.7 [4].
`CC1=C2C(C[C@@H]1OC(=O)c1cccs1)[C@](C)(O)CC[C@H]1[C@H](C)C(=O)O[C@H]21` (stereo partly specified): the inhibition at 25 µM in the data set with RAW264.7 [1] amounted to 0%. In addition, in data set [2], the viability at 18 h came to 100%.
Taken in the same sequence, the figures for `CC1=C2C(C[C@@H]1OC(=O)c1ccsc1)[C@](C)(O)CC[C@H]1[C@H](C)C(=O)O[C@H]21` (stereo partly specified) were 6.7% and 93.9%.
In the same order, the values of `CC1=C2C(C[C@@H]1OC(=O)c1ccco1)[C@](C)(O)CC[C@H]1[C@H](C)C(=O)O[C@H]21` (stereo partly specified) are 2.2% and 100%.
In the same order, the values of `CC1=C2C(C[C@@H]1OC(=O)c1ccccn1)[C@](C)(O)CC[C@H]1[C@H](C)C(=O)O[C@H]21` (stereo partly specified) are 0% and 100%.
Consider `CC1=C2C(C[C@@H]1OC(=O)c1cccnc1)[C@](C)(O)CC[C@H]1[C@H](C)C(=O)O[C@H]21` (stereo partly specified), for which the inhibition at 25 µM in the data set on RAW264.7 [1] came to 6.1%. For the same compound, the viability at 18 h in data set [2] is 86.9%.
In the same order, the values of `CC1=C2C(C[C@@H]1OC(=O)c1ccncc1)[C@](C)(O)CC[C@H]1[C@H](C)C(=O)O[C@H]21` (stereo partly specified) are 2% and 100%.
With `CC1=C2C(C[C@@H]1OC(=O)c1cccc3ccccc13)[C@](C)(O)CC[C@H]1[C@H](C)C(=O)O[C@H]21` (stereo partly specified), the inhibition at 25 µM in the data set with RAW264.7 [1] was determined as 79.6%. For the same compound, the viability at 18 h in data set [2] was 67.4%. Further, the 50% inhibitory concentration (IC50) was determined as 6.98 µM with RAW264.7 [3] and 7.52 µM with RAW264.7 [4].
Regarding `CC1=C2C(C[C@@H]1OC(=O)c1ccc3ccccc3c1)[C@](C)(O)CC[C@H]1[C@H](C)C(=O)O[C@H]21` (stereo partly specified), the inhibition at 25 µM in the data set with RAW264.7 [1] is 68.8%. Moreover, the viability at 18 h in data set [2] turned out to be 100%. Besides, the IC50 was 25.7 µM in the data set on RAW264.7 [3] and 89.4 µM in the data set with RAW264.7 [4].
In the case of `CC1=C2C(C[C@@H]1OC(=O)c1ccc3ncccc3c1)[C@](C)(O)CC[C@H]1[C@H](C)C(=O)O[C@H]21` (stereo partly specified), the inhibition at 25 µM with RAW264.7 [1] amounted to 23.2%. In data set [2], the viability at 18 h came out at 100%.
As for `N=C(N)NN` [PIMAGEDINE], the inhibition at 25 µM in the data set with RAW264.7 [1] came out at 83.8%. For the same compound, the viability at 18 h in data set [2] is 100%. Also, in the data set on RAW264.7 [3], the half-maximal inhibitory concentration (IC50) turned out to be 8.68 µM.
